Seven compounds from patent US9232792B2, “Method for promoting plant growth” (SUMITOMO CHEMICAL COMPANY, LIMITED, priority 2011, dated 2016) can be followed below.

Common to all, as to type: in vivo
Experiment [1] relates to Rice (cultivar: Nipponbare). In words: Test Example 1: promotion of root growth in hydroponics of rice. The note with it: 1 ppm in hydroponic solution; 3 days germination + 3 days cultivation. As for the experimental part:
(§1) Rice (cultivar: Nipponbare)
DMSO solutions containing each of the present compounds 1 to 3 at 10,000 ppm were prepared. A 1/10,000 volume of each DMSO solution containing each of the present compounds 1 to 3 at 10,000 ppm was added to a Hoagland solution for hydroponics at ¼ concentration (Hoagland and Arnon, California Agricultural Experiment Station 1950 Circular 347 pp. 34) to obtain a solution for hydroponics containing each of the present compounds 1 to 3 at 1 ppm. These solutions were used in the treated-group.
(§2) In a non-treated group, a solution for hydroponics obtained by adding a Hoagland solution for hydroponics at ¼ concentration to a 1/10,000 volume of DMSO was used.
(§3) The rice seeds were immersed in an aqueous solution of 1% sodium hypochlorite for 10 minutes, followed by 70% ethanol solution to sterilize their surfaces. After that, the seeds were washed with distilled water. The sterilized seeds were immersed in each solution for hydroponics containing the test compound at the given concentration, and incubated at a temperature of 28° C. for 3 days under dark conditions to stimulate the germination of the seeds.
(§4) Then, 30 ml of each solution for hydroponics containing the test compound at the given concentration was dispensed into a plastic tube (20 mm in diameter×113 mm in height) covered with a cardboard on the lateral surface for blocking a light. A float made of a styrene board and a vinyl mesh was placed on the water surface of each solution for hydroponics, and the rice seeds obtained after the stimulation of germination were placed on the float. The seeds were cultivated for 3 days under the conditions of an illuminance of 4,000 lux at the top of the tube, a temperature of 26° C., a humidity of 50%, and a day length of 16 hours.
The root length of the rice seedlings obtained after the cultivation was measured by using WinRHIZO system (manufactured by REGENT INSTRUMENTS). The average value of the root length in the treated group was calculated from the measurement values of 4 or 5 individuals. […]

Experiment [2] relates to Tobacco (Nicotiana benthamiana). In words: Test Example 4: reduction of low-temperature stress in hydroponics of tobacco. The note with it: 10 ppm in medium; 1.5±1.0° C. for 7 days, then 3 days at 22° C. As for the experimental part: Tobacco (Nicotiana benthamiana)
DMSO solutions containing each of the present compounds 1 to 4 at a concentration of 10,000 ppm were prepared. A 1/1,000 volume of each DMSO solution was added to a Murashige-and-Skoog medium (a medium containing 2.3 g of a mixture of salts for Murashige-and-Skoog medium (manufactured by Wako. Pure Chemical Industries, Ltd.), 200 mg of myoinositol (manufactured by Sigma-Aldrich), 2 mg of nicotinic acid (manufactured by Wako Pure Chemical Industries, Ltd.), 2 mg of pyridoxine hydrochloride (manufactured by Wako Pure Chemical Industries, Ltd.), 20 mg of thiamine hydrochloride (manufactured by Wako Pure Chemical Industries, Ltd.), 20 g of sucrose (manufactured by Wako Pure Chemical Industries, Ltd.), 1 g of MES (manufactured by DOJINDO LABORATORIES) in 1 L of water, adjusted to pH 5.8) at ½ concentration to obtain a medium containing the test compound at a concentration of 10 ppm. These media were used in the treated-group.
In a non-treated group, a medium obtained by adding a 1/1,000 volume of DMSO to a Murashige-and-Skoog medium at ½ concentration was used.
The seeds of tobacco (Nicotiana benthamiana) were sown on 5 μL of the medium, and incubated at 22° C. overnight. Thereto was added 45 μL of a medium containing each present compound at a concentration of 10 ppm, and cultivated for 7 days under the conditions of an illuminance of 4,000 lux, a temperature of 22° C. and a day length of 16 hours, thereby treating the seedlings of tobacco (Nicotiana benthamiana) with the test compound.
In the non-treated group, 45 μL of a medium obtained by adding a 1/1,000 volume of DMSO to a Murashige-and-Skoog medium at ½ concentration was added, and treated in the same manner as above.
The seedlings of tobacco (Nicotiana benthamiana) treated with the present compounds were cultivated for 7 days under the conditions of an illuminance of 2,000 lux, a temperature of 1.5±1.0° C., and a day length of 16 hours, thereby subjecting to low-temperature stress treatment.
The plants of tobacco (Nicotiana benthamiana) subjected to low-temperature stress treatment was cultivated for 3 days under the conditions of an illuminance of 4,000 lux, a temperature of 22° C., and a day length of 16 hours, and then the green leaf area of the plants was visually evaluated. Completely dead plant was scored as 0, the plant without low-temperature stress treatment was scored as 5, the green area was rated on a 6-point scale in ⅕ increments, and the score of not less than 1 was regarded as effective in reducing the stress. As a result of visual evaluation, the green leaf area of plants in the treated group, wherein the plants were treated with the present compound 1, 2, 3 or 4 was much larger than that in the non-treated group.

Experiment [3] concerns Rice (cultivar: Nipponbare). Briefly: Test Example 3: promotion of root growth in hydroponics of rice. The note with it: 1 ppm in hydroponic solution; 3 days germination + 3 days cultivation. The protocol:
as §1
DMSO solutions containing each of the present compounds 4 to 8 at 10,000 ppm were prepared. A 1/10,000 volume of each DMSO solution containing each of the present compounds 4 to 8 at 10,000 ppm was added to a Hoagland solution for hydroponics at ¼ concentration (Hoagland and Arnon, California Agricultural Experiment Station 1950 Circular 347 pp. 34) to obtain a solution for hydroponics containing each of the present compounds 4 to 8 at 1 ppm. These solutions were used in the treated-group.
as §2, §3, §4
The root length of the rice seedlings obtained after the cultivation was measured by using WinRHIZO system (manufactured by REGENT INSTRUMENTS). The average value of the root length in the treated group was calculated from the measurement values of 4 or 5 individuals. As a result, the root length in the treated group, wherein the plants were treated with the present compound 4, 5, 6, 7 or 8 (at a concentration of 1 ppm in each case), was much longer than that in the non-treated group.

Regarding `O=C(O)c1cc2ccc(C(F)(F)F)cc2s1` [The present compound 2, 6-(trifluoromethyl)benzo[b]thiophene-2-carboxylic acid], in experiment [1], the “root length of the rice seedlings vs non-treated group” value (from here on “root length … vs non-treated group”) was “much longer”. In experiment [2], the “green leaf area of plants (visual evaluation) vs non-treated group” value (shortened to “green leaf area … vs non-treated group”) is “much larger”.

As to `O=C(O)c1cc2c(C(F)(F)F)cccc2s1` [The present compound 3, 4-(trifluoromethyl)benzo[b]thiophene-2-carboxylic acid], in experiment [1], the “root length … vs non-treated group” value is listed as “much longer”. The “green leaf area … vs non-treated group” value in experiment [2] is given as “much larger”.

On to `O=C(O)c1cc2cccc(C(F)(F)F)c2s1` [The present compound 4, 7-(trifluoromethyl)benzo[b]thiophene-2-carboxylic acid], for which the “root length … vs non-treated group” value in experiment [3] is recorded as “much longer”. Also, the “green leaf area … vs non-treated group” value in experiment [2] is listed as “much larger”.

In the case of `O=C([O-])c1cc2cc(C(F)(F)F)ccc2s1.[Na+]` [The present compound 5, sodium 5-(trifluoromethyl)benzo[b]thiophene-2-carboxylate], the “root length … vs non-treated group” value in experiment [3] was “much longer”.

For `O=C([O-])c1cc2cc(C(F)(F)F)ccc2s1.[K+]` [The present compound 6, potassium 5-(trifluoromethyl)benzo[b]thiophene-2-carboxylate], the “root length … vs non-treated group” value in experiment [3] was “much longer”.

With `CC(C)N.O=C(O)c1cc2cc(C(F)(F)F)ccc2s1` [The present compound 7, isopropylammonium 5-(trifluoromethyl)benzo[b]thiophene-2-carboxylate], the “root length … vs non-treated group” value in experiment [3] was “much longer”.

Regarding “laurylammonium 5-(trifluoromethyl)benzo[b]thiophene-2-carboxylate [The present compound 8]”, in experiment [3], the “root length … vs non-treated group” value is listed as “much longer”.
